Reference: publication PMC12203311, “Design, synthesis, in silico and in vitro evaluation of pyrrole–indole hybrids as dual tubulin and aromatase inhibitors with potent anticancer activities” (RSC Advances, 2025)

How the values were obtained:
Test in all cases: NCI60 five-dose screen
[1] = test system: SN12C; assay type: cell-based; settings: Homo sapiens, renal cancer
[2] = test system: MDA-MB-231/ATCC; assay type: cell-based; settings: Homo sapiens, breast cancer
[3] = test system: SF-268; assay type: cell-based; settings: Homo sapiens, SF-268, CNS cancer
[4] = test system: HCT-15; assay type: cell-based; settings: Homo sapiens, HCT-15, colon cancer
[5] = test system: SK-MEL-28; assay type: cell-based; settings: Homo sapiens, SK-MEL-28, melanoma
[6] = test system: SW-620; assay type: cell-based; settings: Homo sapiens, SW-620, colon cancer
[7] = test system: HL-60 (TB); assay type: cell-based; settings: Homo sapiens, leukemia
[8] = test system: OVCAR-3; assay type: cell-based; settings: Homo sapiens, OVCAR-3, ovarian cancer
[9] = test system: MALME-3M; assay type: cell-based; settings: Homo sapiens, melanoma
[10] = test system: SK-MEL-2; assay type: cell-based; settings: Homo sapiens, SK-MEL-2, melanoma
[11] = test system: EKVX; assay type: cell-based; settings: Homo sapiens, NSC lung cancer
[12] = test system: MDA-MB-468; assay type: cell-based; settings: Homo sapiens, MDA-MB-468, breast cancer
[13] = test system: UO-31; assay type: cell-based; settings: Homo sapiens, UO-31, renal cancer
[14] = test system: RXF 393; assay type: cell-based; settings: Homo sapiens, RXF 393, renal cancer
[15] = test system: A549/ATCC; assay type: cell-based; settings: Homo sapiens, NSC lung cancer
[16] = test system: KM12; assay type: cell-based; settings: Homo sapiens, KM12, colon cancer
[17] = test system: SF-295; assay type: cell-based; settings: Homo sapiens, SF-295, CNS cancer
[18] = test system: NCI/ADR-RES; assay type: cell-based, human; settings: Homo sapiens, ovarian cancer
[19] = test system: BT-549; assay type: cell-based; settings: Homo sapiens, BT-549, breast cancer
[20] = test system: HOP-92; assay type: cell-based; settings: Homo sapiens, HOP-92, NSC lung cancer
[21] = test system: NCI-H322M; assay type: cell-based; settings: Homo sapiens, NSC lung cancer
[22] = test system: IGROV1; assay type: cell-based; settings: Homo sapiens, IGROV-1; IGROV1, ovarian cancer
[23] = test system: TK-10; assay type: cell-based; settings: Homo sapiens, TK-10, renal cancer
[24] = test system: COLO 205; assay type: cell-based, human; settings: Homo sapiens; COLO 205, colon cancer
[25] = test system: HS 578T; assay type: cell-based; settings: Homo sapiens, breast cancer
[26] = test system: NCI-H23; assay type: cell-based; settings: Homo sapiens, NCI-H23, NSC lung cancer
[27] = test system: HOP-62; assay type: cell-based; settings: Homo sapiens, HOP-62, NSC lung cancer
[28] = test system: A498; assay type: cell-based; settings: Homo sapiens, A498, renal cancer
[29] = test system: SK-OV-3; assay type: cell-based; settings: Homo sapiens, SK-OV-3, ovarian cancer
[30] = test system: UACC-62; assay type: cell-based; settings: Homo sapiens, UACC-62, melanoma
[31] = test system: PC-3; assay type: cell-based; settings: Homo sapiens, PC-3, prostate cancer
[32] = test system: T-47D; assay type: cell-based; settings: Homo sapiens, T47D, breast cancer
[33] = read-out: LC50 (the source's name)

Structure (SMILES): CCc1c[nH]c(/C=N/NC(=O)c2[nH]c3ccc(Br)cc3c2-c2ccccc2)c1 [Derivative 3t, (E)-5-Bromo-N′-((4-ethyl-1H-pyrrol-2-yl)methylene)-3-phenyl-1H-indole-2-carbohydrazide]
- GI50 [1]: 0.372 µM
- CC50 [1, 33]: 30 µM
- GI50 [2]: 0.311 µM
- CC50 [2, 33]: 42.4 µM
- GI50 [3]: 0.861 µM
- CC50 [3, 33]: 51.9 µM
- GI50 [4]: 0.319 µM
- CC50 [4, 33]: 35.6 µM
- GI50 [5]: 0.839 µM
- CC50 [5, 33]: 46.6 µM
- GI50 [6]: 0.431 µM
- CC50 [6, 33]: 42.5 µM
- GI50 [7]: 0.237 µM
- CC50 [7, 33]: 91.9 µM
- GI50 [8]: 0.316 µM
- CC50 [8, 33]: 41.7 µM
- GI50 [9]: 1.72 µM
- CC50 [9, 33]: 48 µM
- GI50 [10]: 0.454 µM
- CC50 [10, 33]: 43.8 µM
- GI50 [11]: 0.448 µM
- CC50 [11, 33]: 35.6 µM
- GI50 [12]: 0.263 µM
- CC50 [12, 33]: 9.22 µM
- GI50 [13]: 1 µM
- CC50 [13, 33]: 40.7 µM
- GI50 [14]: 0.217 µM
- CC50 [14, 33]: 21 µM
- GI50 [15]: 0.397 µM
- CC50 [15, 33]: 38.8 µM
- GI50 [16]: 0.325 µM
- CC50 [16, 33]: 34.4 µM
- GI50 [17]: 0.319 µM
- CC50 [17, 33]: 24.7 µM
- GI50 [18]: 0.247 µM
- CC50 [18, 33]: 22 µM
- GI50 [19]: 0.39 µM
- CC50 [19, 33]: 23.9 µM
- GI50 [20]: 2.57 µM
- CC50 [20, 33]: 33 µM
- GI50 [21]: 2.31 µM
- CC50 [21, 33]: 49.8 µM
- GI50 [22]: 0.888 µM
- LC50 (concentration causing 50% net cell kill) [22]: 48.6 µM
- GI50 [23]: 2.83 µM
- CC50 [23, 33]: 42.1 µM
- GI50 [24]: 0.207 µM
- GI50 [25]: 0.3 µM
- CC50 [25, 33]: 87.3 µM
- GI50 [26]: 0.408 µM
- CC50 [26, 33]: 37.4 µM
- GI50 [27]: 1.35 µM
- CC50 [27, 33]: 37.5 µM
- GI50 [28]: 13.7 µM
- CC50 [28, 33]: 54.5 µM
- GI50 [29]: 0.922 µM
- CC50 [29, 33]: 35.4 µM
- GI50 [30]: 0.442 µM
- CC50 [30, 33]: 32.1 µM
- GI50 [31]: 0.529 µM
- CC50 [31, 33]: 57 µM
- GI50 [32]: 1.59 µM
- CC50 [32, 33]: 39.3 µM
